Source: the supplement of paper PMC11061612

Columns and labels:
Assay in all cases: Bliss excess, mean over the matrix (fraction); higher = more synergy
[1] = system: 639-V (Bladder Carcinoma)
Procedure, shortened: (§1)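 After 24 hours at 37°C and 5% CO2 in 1536-well plates, cells in DMEM/F12 or RPMI plus 10% FBS received two-drug dose matrices for 72 hours. Viability came from CellTiter-Glo 2.0 luminescence and was scaled as inhibition, anchored at 0 by vehicle wells and at 1 by blank wells. Combination Emax is taken as the second-highest inhibition in the matrix, and Bliss excess as the observed combination effect less EA + EB − EA·EB, with EA and EB the single-agent effects.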

[2] = system: CAPAN-1 (Pancreatic Carcinoma)
Procedure, shortened: as §1

[3] = system: EN (Endometrial Carcinoma)
Procedure, shortened: as §1

[4] = system: HCC-15 (Squamous Cell Lung Carcinoma)
Procedure, shortened: as §1

[5] = system: HDLM-2 (Hodgkin's Lymphoma)
Procedure, shortened: as §1

[6] = system: HO-1-u-1 (Oral Cavity Carcinoma)
Procedure, shortened: as §1

[7] = system: Hs-633T (Other Solid Carcinomas)
Procedure, shortened: as §1

[8] = system: K5 (Thyroid Gland Carcinoma)
Procedure, shortened: as §1

[9] = system: LoVo (Colorectal Carcinoma)
Procedure, shortened: as §1

[10] = system: MHH-PREB-1 (B-Cell Non-Hodgkin's Lymphoma)
Procedure, shortened: as §1

[11] = system: Mewo (Melanoma)
Procedure, shortened: as §1

[12] = system: NB14 (Neuroblastoma)
Procedure, shortened: as §1

[13] = system: NCI-H2461 (Mesothelioma)
Procedure, shortened: as §1

[14] = system: NCI-H2795 (Mesothelioma)
Procedure, shortened: as §1

[15] = system: NCI-H69 (Small Cell Lung Carcinoma)
Procedure, shortened: as §1

[16] = system: RPMI-6666 (Non-Cancerous)
Procedure, shortened: as §1

[17] = system: SH-4 (Melanoma)
Procedure, shortened: as §1

[18] = system: SK-OV-3 (Ovarian Carcinoma)
Procedure, shortened: as §1

[19] = system: SW626 (Colorectal Carcinoma)
Procedure, shortened: as §1

[20] = system: UMC-11 (Other Solid Carcinomas)
Procedure, shortened: as §1

Row | Structure (SMILES) | Bliss excess [1] | Bliss excess [2] | Bliss excess [3] | Bliss excess [4] | Bliss excess [5] | Bliss excess [6] | Bliss excess [7] | Bliss excess [8] | Bliss excess [9] | Bliss excess [10] | Bliss excess [11] | Bliss excess [12] | Bliss excess [13] | Bliss excess [14] | Bliss excess [15] | Bliss excess [16] | Bliss excess [17] | Bliss excess [18] | Bliss excess [19] | Bliss excess [20]
1 | CC1(C)CCC(CN2CCN(c3ccc(C(=O)NS(=O)(=O)c4ccc(NCC5CCOCC5)c([N+](=O)[O-])c4)c(Oc4cnc5[nH]ccc5c4)c3)CC2)=C(c2ccc(Cl)cc2)C1 [Venetoclax] + C1CN(CCC1(C(=O)N[C@@H](CCO)C2=CC=C(C=C2)Cl)N)C3=NC=NC4=C3C=CN4 [Capivasertib] (first compound max 1 µM, 7x7, partner max 3 µM) | -0.108 | -0.0473 | -0.0656 | -0.0286 | -0.0166 | -0.052 | -0.0185 | -0.0618 | -0.0419 | -0.0398 | -0.0093 | -0.0461 | -0.0184 | -0.111 | 0.0185 | 0.0217 | -0.0592 | -0.0577 | -0.018 | -0.038
2 | CC1(C)CCC(CN2CCN(c3ccc(C(=O)NS(=O)(=O)c4ccc(NCC5CCOCC5)c([N+](=O)[O-])c4)c(Oc4cnc5[nH]ccc5c4)c3)CC2)=C(c2ccc(Cl)cc2)C1 [Venetoclax] + C=CCn1c(=O)c2cnc(Nc3ccc(N4CCN(C)CC4)cc3)nc2n1-c1cccc(C(C)(C)O)n1 [AZD1775] (first compound max 1 µM, partner max 1 µM) | -0.0322 | -0.0443 | 0.0619 | -0.0355 | 0.0749 | -0.0256 | 0.017 | -0.0279 | -0.0625 | -0.0328 | -0.0079 | 0.0967 | 0.0234 | 0.0657 | -0.0251 | 0.0917 | 0.0107 | -0.026 | -0.0676 | -0.0679
3 | CC1(C)CCC(CN2CCN(c3ccc(C(=O)NS(=O)(=O)c4ccc(NCC5CCOCC5)c([N+](=O)[O-])c4)c(Oc4cnc5[nH]ccc5c4)c3)CC2)=C(c2ccc(Cl)cc2)C1 [Venetoclax] + CCN(CCO)CCCOc1ccc2c(Nc3cc(CC(=O)Nc4cccc(F)c4)[nH]n3)ncnc2c1 [AZD2811] (first compound max 1 µM, 7x7, partner max 1 µM) | -0.0262 | -0.042 | -0.0017 | -0.0209 | 0.106 | -0.0297 | -0.0086 | -0.0231 | -0.0359 | -0.0052 | -0.0193 | -0.0361 | -0.0587 | -0.0581 | 0.0928 | 0.189 | -0.0115 | -0.0401 | -0.0394 | -0.0398
4 | CC1(C)CCC(CN2CCN(c3ccc(C(=O)NS(=O)(=O)c4ccc(NCC5CCOCC5)c([N+](=O)[O-])c4)c(Oc4cnc5[nH]ccc5c4)c3)CC2)=C(c2ccc(Cl)cc2)C1 [Venetoclax] + CN(C)CCCOc1ccc(-c2ccc3ncc4c(c3c2)n(C2CCOCC2)c(=O)n4C)cn1 [AZD0156] (first compound max 1 µM, 7x7, partner max 1 µM) | 0.02 | -0.0696 | -0.0832 | -0.0196 | -0.0015 | -0.003 | -0.0023 | -0.0635 | -0.0251 | 0.0029 | -0.0483 | -0.0017 | -0.0535 | 0.0332 | 0.002 | -0.0231 | -0.0087 | -0.0637 | -0.0381 | -0.0004
5 | CC1(C)CCC(CN2CCN(c3ccc(C(=O)NS(=O)(=O)c4ccc(NCC5CCOCC5)c([N+](=O)[O-])c4)c(Oc4cnc5[nH]ccc5c4)c3)CC2)=C(c2ccc(Cl)cc2)C1 [Venetoclax] + COc1cc(Nc2ncc3c(n2)-c2ccc(Cl)cc2C(c2c(F)cccc2OC)=NC3)ccc1C(=O)O [Alisertib] (first compound max 1 µM, 7x7, partner max 10 µM) | 0.0173 | -0.0425 | -0.0554 | -0.0104 | 0.0993 | 0.0246 | -0.0237 | -0.0455 | -0.0799 | -0.03 | -0.0163 | 0.0448 | -0.0208 | -0.0656 | 0.146 | 0.0702 | -0.0234 | -0.076 | -0.0167 | 0.192
6 | CC1(C)CCC(CN2CCN(c3ccc(C(=O)NS(=O)(=O)c4ccc(NCC5CCOCC5)c([N+](=O)[O-])c4)c(Oc4cnc5[nH]ccc5c4)c3)CC2)=C(c2ccc(Cl)cc2)C1 [Venetoclax] + C[C@@H]1COCCN1C2=NC(=NC(=C2)C3(CC3)[S@](=N)(=O)C)C4=C5C=CNC5=NC=C4 [AZD6738] (first compound max 1 µM, 7x7, partner max 10 µM) | -0.0323 | -0.0674 | -0.0605 | -0.0296 | 0.0068 | 0.0026 | -0.0455 | -0.0758 | -0.0637 | 0.0046 | -0.0285 | -0.0005 | -0.026 | -0.0578 | -0.0494 | 0.0224 | -0.022 | -0.012 | -0.0492 | -0.0331
7 | CC1(C)CCC(CN2CCN(c3ccc(C(=O)NS(=O)(=O)c4ccc(NCC5CCOCC5)c([N+](=O)[O-])c4)c(Oc4cnc5[nH]ccc5c4)c3)CC2)=C(c2ccc(Cl)cc2)C1 [Venetoclax] + C[C@@H](Nc1cc(F)cc(F)c1)c1cc(C(=O)N(C)C)cc2c(=O)cc(N3CCOCC3)oc12 [AZD8186] (first compound max 1 µM, 7x7, partner max 3 µM) | 0.0371 | -0.0594 | -0.0384 | 0.0109 | 0.122 | -0.0183 | -0.017 | -0.111 | 0.029 | -0.0297 | 0.0083 | -0.0644 | 0.0092 | -0.0218 | 0.0128 | 0.0617 | -0.0214 | -0.0984 | -0.0258 | -0.0263
8 | CC1(C)CCC(CN2CCN(c3ccc(C(=O)NS(=O)(=O)c4ccc(NCC5CCOCC5)c([N+](=O)[O-])c4)c(Oc4cnc5[nH]ccc5c4)c3)CC2)=C(c2ccc(Cl)cc2)C1 [Venetoclax] + Cc1cc2ncnn2cc1Nc1ncc2c(n1)n(C1CCOCC1)c(=O)n2C [AZD7648] (first compound max 1 µM, 7x7, partner max 10 µM) | -0.0501 | -0.0196 | -0.0233 | -0.0033 | 0.0551 | -0.0307 | -0.0154 | -0.103 | -0.0526 | 0.0028 | -0.0181 | -0.0033 | -0.0954 | -0.0113 | -0.0227 | -0.0477 | -0.0039 | -0.134 | -0.0098 | -0.0465
9 | CC1(C)CCC(CN2CCN(c3ccc(C(=O)NS(=O)(=O)c4ccc(NCC5CCOCC5)c([N+](=O)[O-])c4)c(Oc4cnc5[nH]ccc5c4)c3)CC2)=C(c2ccc(Cl)cc2)C1 [Venetoclax] + Cn1cnc2c(F)c(Nc3ccc(Br)cc3Cl)c(C(=O)NOCCO)cc21 [Selumetinib] (first compound max 1 µM, 7x7, partner max 3 µM) | 0.0346 | -0.057 | -0.0325 | 0.0315 | -0.0245 | -0.0352 | -0.0386 | -0.0402 | -0.0458 | 0.0028 | -0.0252 | -0.0221 | -0.0175 | -0.0354 | -0.105 | 0.0306 | -0.0306 | -0.0624 | -0.0877 | -0.0424
